Assay results reported in ChEMBL document CHEMBL5252512, “Recent Progress in the Development of HIV-1 Protease Inhibitors for the Treatment of HIV/AIDS” (J Med Chem, 2016).
pEC50, pIC50, pKi: −log10 of the molar value. Values belong to the compound of their own block, whether it stands above or below them.

What was measured:
[1] = test system: Human immunodeficiency virus 1; experiment: Antiviral activity against wild type HIV-1 IIIB infected in human MT4 cells assessed as protection against virus-induced cytotoxicity incubated for 5 days by XTT assay; format: functional, organism-based; conditions: Human immunodeficiency virus 1, IIIB, MT4, 120 h
[2] = target: T1, Human immunodeficiency virus type 1 protease (Human immunodeficiency virus 1, UniProt Q72874); experiment: Binding affinity to wild-type HIV1 protease expressed in Escherichia coli BL21(DE3) assessed as inhibition constant using (2-aminobenzoyl)Thr-Ile-Nle-(p-nitro)Phe-Gln-Arg peptide as substrate preincubated for 15 mins followed by substrate addition by fluorimeter analysis
[3] = target: T1, Human immunodeficiency virus type 1 protease; experiment: Inhibition of recombinant HIV1 Protease using His-Lys-Ala-Arg-Val-Leu-(pNO2-Phe)-Glu-Ala-Nle-SerNH2 peptide as substrate
[4] = AUC in dog at 4 mg/kg, po; format: ADME, organism-based, Canis lupus familiaris; parameters: dose 4 mg/kg, route po; conditions: in vivo
[5] = AUC in rat at 10 mg/kg, po; format: ADME, organism-based; parameters: dose 10 mg/kg, route po; conditions: in vivo
[6] = Clearance in dog at 1 mg/kg, iv; format: ADME, organism-based, Canis lupus familiaris; conditions: in vivo
[7] = Half life in rat at 1 mg/kg, iv; format: ADME, organism-based; conditions: in vivo
[8] = Clearance in rat at 2 mg/kg, iv; format: ADME, organism-based; conditions: in vivo
[9] = Half life in dog at 1 mg/kg, iv; format: ADME, organism-based, Canis lupus familiaris; conditions: in vivo
[10] = target: T1, Human immunodeficiency virus type 1 protease; experiment: Binding affinity to HIV1 protease assessed as inhibition constant
[11] = test system: Human immunodeficiency virus 1; experiment: Antiviral activity against HIV1 LAI infected in human MT2 cells assessed as inhibition of virus-induced cytopathic effect; format: functional, organism-based; conditions: Human immunodeficiency virus 1, LAI
[12] = target: T1, Human immunodeficiency virus type 1 protease; experiment: Inhibition of recombinant HIV1 Protease using Abz-Thr-Ile-Nle-(p-nitro)-Phe-Gln-Arg-NH2 peptide as substrate

Compound: CCOP(=O)(COc1ccc(C[C@H](NC(=O)O[C@H]2CO[C@H]3OCC[C@H]32)[C@H](O)CN(CC(C)C)S(=O)(=O)c2ccc(OC)cc2)cc1)OCC
pEC50 [1]: 8.46
pKi [2]: 11.09

Compound: C=C(C)[C@H]1CC[C@]2(C)[C@H]3CC[C@@H]4[C@@]5(C)C[C@H](OC(C)=O)C[C@](C)(C(=O)O)[C@@H]5CC[C@@]4(C)[C@]3(C)CC[C@@H]12
pIC50 [3]: 5.77

Compound: Cc1cccc(C)c1OCC(=O)N(Cc1ccccc1)C[C@@H]1CNC[C@H]1CN(CC(C)C)S(=O)(=O)c1ccccc1
pIC50 [12]: 5.66

Compound: C=C(C)[C@@H]1CC[C@@]2(C)[C@@H]1C1CC[C@@H]3[C@@](C)(CC(=O)O)[C@H](C(C)(C)C(=O)O)CC[C@@]3(C)[C@]1(C)C[C@@H]2O (some centres undefined)
pIC50 [3]: 4.75

Other lines, results leading:

AUC [4]: 2.48 µM·h
AUC [5]: 1.35 µM·h
clearance [6]: 5.3 mL/min/kg
half-life [7]: 12.4 h
clearance [8]: 30 mL/min/kg
half-life [9]: 9.1 h
Compound: CCCN([C@H](CO)CCC[C@H](C)NC(=O)[C@@H](NC(=O)OC)C(c1ccccc1)c1ccccc1)S(=O)(=O)c1ccc(N)cc1

pKi [10]: 9.96
pIC50 [11]: 8.42
Compound: COc1ccc(S(=O)(=O)N(CC(C)C)C[C@@H](O)[C@H](Cc2ccccc2)NC(=O)O[C@@H]2C[C@@H]3OCO[C@@H]3C2)cc1

AUC [4]: 3.62 µM·h
AUC [5]: 0.56 µM·h
clearance [6]: 4.7 mL/min/kg
half-life [7]: 3.38 h
clearance [8]: 17.4 mL/min/kg
half-life [9]: 5.2 h
Compound: CCCN([C@H](CO)CCC[C@@H](NC(=O)[C@@H](NC(=O)OC)C(c1ccccc1)c1ccccc1)C(F)(F)F)S(=O)(=O)c1ccc(N)cc1
